# Laboratory results reported in patent publication US20250352609A1, “Methods For Treating Alzheimer's Disease or Dementia Using A Calcilytic And A Calcimimetic” (The United States Government As Represented By The …, priority 2024, published 2025).
# How the values were obtained:
# 18 MOA male C57/B6 mice = experiment: Y-maze test, aging-induced cognitive declines, Etelcalcetide; assay type: in vivo; conditions: 18 MOA vs 5 MOA male C57/B6 mice, 8 weeks daily (5 days/week) injections, 500 μg/kg
# Description: Spont Alt indices of Y-maze test in 5 and 18 MOA male C57/B6 mice after 8 weeks of daily (5 days/week) injections of vehicle, 500 μg/kg Etelcalcetide (Etel) and/or 12 μmole/kg NPS-2143 (2143). Mean±SE, p values by one-way ANOVA, n=6-12 mice/group.
# (§1) Based on the outcomes of the above genetically manipulated mice, it was tested whether pharmacological manipulations of serum PTH levels with blood-brain barrier (BBB)-impermeable calcimimetics (e.g., etelcalcetide) that activate CaSR homodimers in PTCs to suppress PTH secretion can prevent the cognitive declines in the aging and APP^NL-G-F/NL-G-F mice.
# APP^NL-G-F mice = experiment: Y-maze test, cognitive declines in EOAD mice, Etelcalcetide; assay type: in vivo; conditions: APP^NL-G-F mice at 10 MOA, daily (5 days/week) injections 500 μg/kg beginning at 6 MOA
# Description: Spont Alt indices of Y-maze test in 10 MOA mice carrying humanized Ab sequence without (bAb-KI) or with (APP^NLGF) 4 mutations identified from EOAD patients after daily (5 days/week) injections of vehicle, 500 μg/kg Etelcalcetide (Etel) and/or 12 μmole/kg NPS-2143 (2143) beginning at 6 MOA. Mean±SE, p values by one-way ANOVA, n=19-37 mixed male and female mice/group.
# as §1
# serum PTH (sPTH) = experiment: Serum PTH in aging-associated HPT mice; assay type: in vivo; conditions: aged male C57/B6 mice; aducanumab 40 mg/kg/week by twice weekly injections for 5 weeks; Etelcalcetide 0.3 mg/kg once daily
# Tau phosphorylation = experiment: Aβ1-42-stimulated PTH secretion in vitro with Tau phosphorylation inhibitor; assay type: cell-based; conditions: inhibition of Tau phosphorylation
# Text: In support of this finding, inhibition of Tau phosphorylation by a staurosporine analogue (K252a) blocked the ability of Aβ1-42 to stimulate PTH secretion in vitro, and the increased tonic PTH hypersecretion seen in mice with PTC-targeted Vdr gene KO (^PTCVdr^Dflox/Dflox), mimicking vitamin D deficiency, was reversed by a concurrent ablation of App (^PTCVdr^Dflox/Dflox; App^Dflox/Dflox) or the TAU-encoding Mapt (^PTCVdr^Dflox/Dflox; Mapt−/−) gene.
# murine PTGs = experiment: Ex vivo tonic PTH secretion from cultured murine PTGs; assay type: cell-based
# Description: Ex vivo assessments of the impact of different concentrations (0.3 to 1000 nM) Aβ1-42 on PTH secretion from intact PTGs cultured from the 3-month-old mice with homozygous parathyroid-specific App gene KO (square); homozygous parathyroid-specific App and Casr double gene KO (up triangle); homozygous parathyroid-specific App and Gabbr1 double gene KO (down triangle); or homozygous parathyroid-specific App, Casr, and Gabbr1 triple gene KO (diamond). Mean±s.e.m. of n mice as indicated in the plots.
# (§2) This stimulatory effect was absent in murine PTGs lacking either CaSR or GABAB1R.
# human PTGs = experiment: Tonic PTH secretion from cultured human PTGs; assay type: cell-based; conditions: exogenous Aβ1-42 0.3 to 1000 nM, concentration-dependent, vs control
# Text: as §2
# [1] = tested on: iPSC-derived neurons co-expressing CASR and GABAB1R; experiment: cAMP production in iPSC-derived neurons challenged by Aβ42; assay type: cell-based; conditions: iPSC-derived neurons perfused with Aβ42
# Text: Averaged time courses of CAMP in normal iPSC-derived neurons natively expressing CaSR and GABAB1R and challenged by Ab1-42. Cells were continuously perfused with buffer without or with Aβ42 (horizontal bar). Data represent the mean value s.e.m. of n=20 cells and N=3 experiments.
# Given that HPT can cause chronic inflammation (Cheng, S. P., et al. Mediators Inflamm 2014, 709024 (2014); çrakolu, M. F. et al. ENT Updates 11, 115-119 (2021); and Almqvist, E. G., et al. Scandinavian journal of clinical and laboratory investigation 71, 139-144 (2011)) and that CaSR expression increases in inflammatory responses in pathological conditions (Jager, E. et al. Nat Commun 11, 4243 (2020); and Iamartino, L. & Brandi, M. L. Front Physiol 13, 1059369 (2022)), including in AD, through interleukin (IL)-1β (IL1β) and IL-6-induced NFkb cis-acting response of CASR gene (Canaff, L. & Hendy, G. N. J Biol Chem 280, 14177-14188 (2005); and Hendy, G. N. & Canaff, Semin Cell Dev Biol 49, 37-43 (2016)), HPT-induced inflammation could be a leading cause for CaSR upregulation as well as for Aβ buildup in AD (Kinney, J. W. et al. Alzheimers Dement (N Y) 4, 575-590 (2018); Ilievski, V. et al. PloS one 13, e0204941 (2018); and Yamamoto, M. et al. Am J Pathol 170, 680-692 (2007)).
compound,measurement,setting,value
CC(=O)N[C@H](CSSC[C@H](N)C(=O)O)C(=O)N[C@H](C)C(=O)N[C@H](CCCNC(=N)N)C(=O)N[C@H](CCCNC(=N)N)C(=O)N[C@H](CCCNC(=N)N)C(=O)N[C@H](C)C(=O)N[C@H](CCCNC(=N)N)C(N)=O [Etelcalcetide],"cognitive declines, Y-maze Spont Alt index",18 MOA male C57/B6 mice,partially prevented
same,"early cognitive declines, Y-maze Spont Alt index",APP^NL-G-F mice,partially prevented
same,reduction of sPTH,serum PTH (sPTH),> 80%
COC(=O)[C@@]1(O)C[C@H]2O[C@]1(C)n1c3ccccc3c3c4c(c5c6ccccc6n2c5c31)C(=O)NC4 [K252a],ability of Aβ1-42 to stimulate PTH secretion,Tau phosphorylation,blocked
"Aβ1-42: b-amyloid (Ab1-42), derivative of amyloid precursor protein, added exogenously to PTG cultures",stimulation of tonic PTH secretion,"murine PTGs; exogenous Aβ1-42 0.3 to 1000 nM, concentration-dependent, vs control",up to 1.6 fold
same,stimulatory effect on PTH secretion in PTGs lacking either CaSR or GABAB1R,murine PTGs; murine PTGs lacking either CaSR or GABAB1R,absent
same,Ca^2+-set point,"murine PTGs; murine and human PTGs, Aβ1-42 0.3 to 1000 nM",without shifting
same,stimulation of tonic PTH secretion,human PTGs,≤ 1.9 fold
same,cAMP production,[1],stimulating cAMP production
